Experimental findings from publication PMC3914206 are described below.

Common to all, as to assay type: binding
Settings in all cases: Compound Concentration 10 µM

The target of assay [1] is T1, panel of 442 kinases (Homo sapiens, UniProt Q9Y6E0).
T1 construct: purchased KINOMEscan
An excerpt: (§1) We assessed the selectivity of members of this scaffold using the KINOMEscan methodology across a near comprehensive panel of 442 kinases [[18,27]].

The target of assay [2] is T2, panel of 442 kinases (Homo sapiens, UniProt O43353).
T2 construct: purchased KINOMEscan
T2 sequence (O43353 whole entry): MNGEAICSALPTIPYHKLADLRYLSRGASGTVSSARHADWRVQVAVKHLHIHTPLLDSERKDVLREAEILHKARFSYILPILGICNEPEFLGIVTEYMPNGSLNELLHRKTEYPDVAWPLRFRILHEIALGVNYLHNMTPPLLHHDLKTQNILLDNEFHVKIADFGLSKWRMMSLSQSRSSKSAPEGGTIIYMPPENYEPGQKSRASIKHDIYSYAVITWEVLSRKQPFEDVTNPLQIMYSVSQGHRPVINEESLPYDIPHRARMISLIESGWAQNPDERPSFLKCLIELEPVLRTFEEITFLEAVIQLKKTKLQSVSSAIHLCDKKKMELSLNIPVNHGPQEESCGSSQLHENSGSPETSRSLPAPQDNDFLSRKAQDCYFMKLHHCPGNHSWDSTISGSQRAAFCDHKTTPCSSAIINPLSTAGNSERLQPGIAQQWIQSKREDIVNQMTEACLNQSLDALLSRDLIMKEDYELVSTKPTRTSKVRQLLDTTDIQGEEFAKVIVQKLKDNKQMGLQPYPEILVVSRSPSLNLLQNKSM
From the text: as §1

The target in assay [3] is T3, panel of 442 kinases (Homo sapiens, UniProt Q16566).
T3 construct: purchased KINOMEscan
T3 sequence (Q16566 1-473): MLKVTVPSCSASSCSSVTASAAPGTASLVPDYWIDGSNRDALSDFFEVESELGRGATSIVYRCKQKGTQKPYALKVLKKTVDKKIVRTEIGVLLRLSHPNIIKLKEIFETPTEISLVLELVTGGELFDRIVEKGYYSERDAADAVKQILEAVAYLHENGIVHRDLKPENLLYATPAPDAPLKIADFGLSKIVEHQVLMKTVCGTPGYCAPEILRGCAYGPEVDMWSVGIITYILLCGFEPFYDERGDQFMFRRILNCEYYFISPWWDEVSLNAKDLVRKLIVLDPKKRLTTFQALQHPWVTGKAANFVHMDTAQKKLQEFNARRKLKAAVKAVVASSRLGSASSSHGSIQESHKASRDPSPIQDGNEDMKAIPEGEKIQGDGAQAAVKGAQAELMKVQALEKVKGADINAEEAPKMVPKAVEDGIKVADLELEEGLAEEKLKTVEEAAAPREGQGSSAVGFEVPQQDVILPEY
From the text: as §1

T1 sequence (Q9Y6E0 whole entry): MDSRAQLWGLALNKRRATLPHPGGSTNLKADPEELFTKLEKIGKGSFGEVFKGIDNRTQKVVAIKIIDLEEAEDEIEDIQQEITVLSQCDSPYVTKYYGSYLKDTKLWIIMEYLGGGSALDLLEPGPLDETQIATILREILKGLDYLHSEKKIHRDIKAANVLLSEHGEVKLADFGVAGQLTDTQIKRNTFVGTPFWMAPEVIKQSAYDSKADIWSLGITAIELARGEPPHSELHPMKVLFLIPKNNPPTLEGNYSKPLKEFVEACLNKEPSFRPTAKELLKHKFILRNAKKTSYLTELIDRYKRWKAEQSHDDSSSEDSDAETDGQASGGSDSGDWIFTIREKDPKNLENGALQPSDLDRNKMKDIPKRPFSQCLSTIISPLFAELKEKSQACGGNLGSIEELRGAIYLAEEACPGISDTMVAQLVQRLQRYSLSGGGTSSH

`COc1cc(C(=O)N2CCC(N3CCN(C)CC3)CC2)ccc1Nc1ncc2c(n1)N(C)c1ccccc1C(=O)N2C` [15 (LRRK2-IN-1)]: the “KINOMEscan: MST3” value at panel of 442 kinases [1] is on record as 87. Also, the “KINOMEscan: RIPK2” value at panel of 442 kinases [2] is 100. In addition, the “KINOMEscan: CAMK4” value at panel of 442 kinases [3] worked out at 79.
Consider `COc1cc(C(=O)N2CCC(N3CCN(C)CC3)CC2)ccc1Nc1ncc2c(n1)N1CCc3cccc(c31)C(=O)N2C` [Compound 24], for which the “KINOMEscan: MST3” value on panel of 442 kinases [1] came out at 73. Besides, the “KINOMEscan: RIPK2” value on panel of 442 kinases [2] is 95.
On to `COc1cc(C(=O)N2CCC(N3CCN(C)CC3)CC2)ccc1Nc1ncc2c(n1)N(C1CCCC1)c1ccccc1C(=O)N2C` [Compound 25, 11-cyclopentyl-2-((2-methoxy-4-(4-(4-methylpiperazin-1-yl)piperidine-1-carbonyl)phenyl)amino)-5-methyl-5H-benzo[e]pyrimido[5,4-b][1,4]diazepin-6(11H)-one], for which, on panel of 442 kinases [1], the “KINOMEscan: MST3” value amounted to 88. The “KINOMEscan: RIPK2” value at panel of 442 kinases [2] was 87. The “KINOMEscan: CAMK4” value at panel of 442 kinases [3] was determined as 82.
`CCOc1cc(C(=O)N2CCC(N3CCN(C)CC3)CC2)ccc1Nc1ncc2c(n1)N(C1CCCC1)c1ccccc1C(=O)N2C` [Compound 26]: the “KINOMEscan: MST3” value on panel of 442 kinases [1] was found to be 100. The “KINOMEscan: RIPK2” value at panel of 442 kinases [2] is on record as 100. For the same compound, at panel of 442 kinases [3], the “KINOMEscan: CAMK4” value came out at 100.
